The data set can be described thus: Partition coefficient of cocoa procyanidin oligomers in the CPC biphasic solvent system. The data set is classed as physicochemical. The conditions noted are these: typical CPC runs as described; biphasic ethyl acetate:ethanol:water (6:1:5), ascending mode; unfermented cocoa bean sample of 8.5 grams. On the procedure: A sample is mixed with water and prepared for FCPC with a KROMATON device and rotor. Columns are prepared with biphasic solvent mixture of ethyl acetate:ethanol:water at 6:1:5 ratio. The solvent used can be modified from this ratio by calculating the partition coefficients and comparing to that of the ethyl acetate:ethanol:water example. The FCPC is run in ascending mode for purifying procyanidins, so that the mobile phase is the upper phase in the resting columns.
These quantities are isolated from an unfermented cocoa bean sample of 8.5 grams. In comparison, with a diol HPLC column, 150×30 mm, injecting about 270 mg of the same sample per run yields only about 25 mg of DP2-4 and less than 1 mg of DP11-12. Clearly, the CPC methods of the invention provide commercially viable methods for producing usable quantities of a range of procyanidin oligomers, especially from cocoa sources.

Structures are written as SMILES.

For `Oc1cc(O)c2c(c1)O[C@H](c1ccc(O)c(O)c1)[C@H](O)C2` [epicatechin], the Partition coefficient stood at 0.84. Compound `Oc1cc(O)c2c(c1)O[C@H](c1ccc(O)c(O)c1)[C@H](O)[C@H]2c1c(O)cc2c(c1O)C[C@@H](O)[C@@H](c1ccc(O)c(O)c1)O2` [procyanidin B5] gave a Partition coefficient of 0.94. The result for `Oc1cc(O)c2c(c1)O[C@H](c1ccc(O)c(O)c1)[C@H](O)[C@H]2c1c(O)cc(O)c2c1O[C@H](c1ccc(O)c(O)c1)[C@H](O)C2` [procyanidin B2] reads 0.63.

The values above are taken from patent US9334257B2, “Methods of purifying and identifying the presence of and levels of procyanidin oligomeric compounds” (The Hershey Company, priority 2012, dated 2016).
